The values below come from patent publication US20070128217A1 (priority 2003, published 2007).

Test [1] relates to rabbit serum obtained by immunizing a rabbit with the SARS-CoV strain Frankfurt 1. It is filed as binding. On the set-up: Binding of a rabbit serum to linear peptides / Binding of a rabbit serum to looped peptides / Rabbit serum linear peptides / Rabbit serum looped peptides / Binding of a rabbit serum to linear peptides of protein N of SARS-CoV Urbani (Rabbit serum linear peptides) / Binding of a rabbit serum to looped/cyclic peptides of protein N of SARS-CoV Urbani (Rabbit serum looped peptides): unit not given here.

For test [2], the system named is control sera (pooled serum of ten healthy LUMC hospital workers; commercial negative donor pooled serum from the Dutch bloodbank). It is filed as binding, human. On the set-up: Binding of Control serum LUMC to linear peptides / Binding of Control serum Blood-bank to linear peptides / Binding of Control serum LUMC to looped peptides / Binding of Control Serum Blood-Bank to Looped peptides / Binding of Control serum LUMC to linear peptides of the protein M of SARS-CoV Urbani / Binding of Control serum Blood-bank to linear peptides of the protein M of SARS-CoV Urbani / Binding of Control serum LUMC to looped peptides of the protein M of SARS-CoV Urbani / Binding of Control Serum Blood-Bank to Looped peptides of the protein M of SARS-CoV Urbani: unit not given here.

In test [3] the test system is antibodies in sera from SARS patients (sera 1a, 1b, 2, 6, 37, 62, London, SARS-yellow, SARS-green). It is filed as binding, human. On the set-up: Binding of serum 6 to linear peptides of protein X1 of SARS-CoV Urbani / Binding of serum 37 to linear peptides of protein X1 of SARS-CoV Urbani / Binding of serum 6 to looped/cyclic peptide (PEPSCAN-ELISA) / Binding of serum 37 to looped/cyclic peptide (PEPSCAN-ELISA) / Binding of serum 37 to looped/cyclic peptides of protein X1 of SARS-CoV Urbani / Binding of serum 6 to linear peptides of protein X2 / Binding of serum 37 to linear peptides of protein X2 / Binding of serum 37 to looped/cyclic peptides of protein X2 of SARS-CoV Urbani / Binding of serum 6 to linear peptides of protein M of SARS-CoV Urbani / Binding of serum 37 to linear peptides of protein M of SARS-CoV Urbani / Binding of serum 6 to looped/cyclic peptides of protein M of SARS-CoV Urbani / Binding of serum 37 to looped/cyclic peptides of protein M of SARS-CoV Urbani / Binding of serum 6 to linear peptides of protein X3 of SARS-CoV Urbani / Binding of serum 37 to linear peptides of protein X3 of SARS-CoV Urbani / Binding of serum 37 to looped/cyclic peptides of protein X3 of SARS-CoV Urbani / Binding of serum 6 to linear peptides of protein X4 of SARS-CoV Urbani / Binding of serum 37 to linear peptides of protein X4 of SARS-CoV Urbani / Binding of serum 37 to looped/cyclic peptides of protein X4 of SARS-CoV Urbani / Binding of serum 6 to linear peptides of protein X5 of SARS-CoV Urbani / Binding of serum 37 to linear peptides of protein X5 of SARS-CoV Urbani / Binding of serum 37 to looped/cyclic peptides of protein X5 of SARS-CoV Urbani / Binding of serum 6 to linear peptides of protein N of SARS-CoV Urbani / Binding of serum 37 to linear peptides of protein N of SARS-CoV Urbani / Binding of serum 6 to linear peptide (PEPSCAN-ELISA) / Binding of serum 1a to looped/cyclic peptides of protein N of SARS-CoV Urbani / Binding of serum 1b to looped/cyclic peptides of protein N of SARS-CoV Urbani / Binding of serum 2 to looped/cyclic peptides of protein N of SARS-CoV Urbani / Binding of serum 6 to looped/cyclic peptides of protein N of SARS-CoV Urbani / Binding of serum 37 to looped/cyclic peptides of protein N of SARS-CoV Urbani / Binding of serum 62 to looped/cyclic peptides of protein N of SARS-CoV Urbani / Binding of serum London to looped/cyclic peptides of protein N of SARS-CoV Urbani / Binding of serum SARS-green to looped/cyclic peptides of protein N of SARS-CoV Urbani: unit not given here.

For VAAGMEAQFLYLYAL, in test [1], the “Binding of a rabbit serum to linear peptides” value amounted to 0.1 and the “Binding of a rabbit serum to looped peptides” value was 0.5. In test [2], the “Binding of Control Serum Blood-Bank to Looped peptides” value stood at 0.5, the “Binding of Control serum Blood-bank to linear peptides” value is reported as 0.5, the “Binding of Control serum LUMC to linear peptides” value is on record as 0.9 and the “Binding of Control serum LUMC to looped peptides” value was 0.8. Further, in test [3], the “Binding of serum 1a to linear peptides of protein X1 of SARS-CoV Urbani” value came to 0.7, the “Binding of serum 1a to looped/cyclic peptide (PEPSCAN-ELISA)” value is reported as 0.5, the “Binding of serum 1b to linear peptides of protein X1 of SARS-CoV Urbani” value came to 0.6 and the “Binding of serum 1b to looped/cyclic peptide (PEPSCAN-ELISA)” value was found to be 0.4. Moreover, in test [3], the “Binding of serum 2 to linear peptides of protein X1 of SARS-CoV Urbani” value turned out to be 0.5, the “Binding of serum 2 to looped/cyclic peptide (PEPSCAN-ELISA)” value was 0.4, the “Binding of serum 6 to linear peptides of protein X1 of SARS-CoV Urbani” value was determined as 0.4 and the “Binding of serum 6 to looped/cyclic peptide (PEPSCAN-ELISA)” value is 0.3. For the same sequence, in test [3], the “Binding of serum 37 to linear peptides of protein X1 of SARS-CoV Urbani” value is on record as 0.5, the “Binding of serum 37 to looped/cyclic peptide (PEPSCAN-ELISA)” value worked out at 0.5, the “Binding of serum 62 to linear peptides of protein X1 of SARS-CoV Urbani” value is listed as 0.4 and the “Binding of serum 62 to looped/cyclic peptide (PEPSCAN-ELISA)” value was 0.5. Moreover, in test [3], the “Binding of serum London to linear peptides of protein X1 of SARS-CoV Urbani” value came out at 0.2, the “Binding of serum London to looped/cyclic peptide (PEPSCAN-ELISA)” value was 0.2, the “Binding of serum SARS-green to linear peptides of protein X1 of SARS-CoV Urbani” value is reported as 0.2 and the “Binding of serum SARS-green to looped/cyclic peptide (PEPSCAN-ELISA)” value amounted to 0.3. Also, in test [3], the “Binding of serum SARS-yellow to linear peptides of protein X1 of SARS-CoV Urbani” value stood at 0.3 and the “Binding of serum SARS-yellow to looped/cyclic peptide (PEPSCAN-ELISA)” value is on record as 0.5.

As to VAFLAVFQSATKIIA, in test [1], the “Binding of a rabbit serum to linear peptides” value is reported as 0.2 and the “Binding of a rabbit serum to looped peptides” value was determined as 0.6. Also, in test [2], the “Binding of Control Serum Blood-Bank to Looped peptides” value was found to be 0.7, the “Binding of Control serum Blood-bank to linear peptides” value came to 0.6, the “Binding of Control serum LUMC to linear peptides” value was 0.5 and the “Binding of Control serum LUMC to looped peptides” value came out at 0.7. Moreover, in test [3], the “Binding of serum 1a to linear peptides of protein X1 of SARS-CoV Urbani” value turned out to be 0.6, the “Binding of serum 1a to looped/cyclic peptide (PEPSCAN-ELISA)” value was 0.6, the “Binding of serum 1b to linear peptides of protein X1 of SARS-CoV Urbani” value turned out to be 0.5 and the “Binding of serum 1b to looped/cyclic peptide (PEPSCAN-ELISA)” value was 0.4. In addition, in test [3], the “Binding of serum 2 to linear peptides of protein X1 of SARS-CoV Urbani” value came out at 0.5, the “Binding of serum 2 to looped/cyclic peptide (PEPSCAN-ELISA)” value turned out to be 0.6, the “Binding of serum 6 to linear peptides of protein X1 of SARS-CoV Urbani” value amounted to 0.7 and the “Binding of serum 6 to looped/cyclic peptide (PEPSCAN-ELISA)” value is on record as 0.7. For the same sequence, in test [3], the “Binding of serum 37 to linear peptides of protein X1 of SARS-CoV Urbani” value is 0.6, the “Binding of serum 37 to looped/cyclic peptide (PEPSCAN-ELISA)” value was determined as 0.6, the “Binding of serum 62 to linear peptides of protein X1 of SARS-CoV Urbani” value is reported as 0.6 and the “Binding of serum 62 to looped/cyclic peptide (PEPSCAN-ELISA)” value amounted to 0.6. In test [3], the “Binding of serum London to linear peptides of protein X1 of SARS-CoV Urbani” value worked out at 0.2, the “Binding of serum London to looped/cyclic peptide (PEPSCAN-ELISA)” value is on record as 0.7, the “Binding of serum SARS-green to linear peptides of protein X1 of SARS-CoV Urbani” value is listed as 0.2 and the “Binding of serum SARS-green to looped/cyclic peptide (PEPSCAN-ELISA)” value is 0.4. For the same sequence, in test [3], the “Binding of serum SARS-yellow to linear peptides of protein X1 of SARS-CoV Urbani” value came to 0.4 and the “Binding of serum SARS-yellow to looped/cyclic peptide (PEPSCAN-ELISA)” value came out at 0.5.
